Consider one compound from publication PMC11535186, “Exploring the Anti-Inflammatory Potential of Ajuga integrifolia Leaves Extract: In Vitro Dual Inhibition of Cyclooxygenase and Lipoxygenase Enzymes” (Advances in Pharmacological and Pharmaceutical Sciences, 2024).

SMILES strings stand for the structures.

For the assay, the target named is 5-LOX (Glycine max, UniProt P08170). In words: 5-LOX inhibitory assay (linoleic acid substrate, 234 nm). The class given is biochemical. The note with it: read-out: % inhibition 5-LOX. The method, then:
The inhibition of LOX was evaluated according to the method described by Malterud with slight modifications. A 100 μL enzyme solution was prepared in boric acid buffer (0.2 M; pH 9.0). To assess the inhibitory effect, 25 μL of each test extract (20, 40, 60, 80, and 100 μg/mL) was added to the enzyme solution. The mixture was then incubated at room temperature for 3 min. […] IC50 values were calculated by regression analysis using Microsoft Excel involving five concentrations. The percentage inhibition of enzyme activity and IC50 values are presented as the mean values ± SD.

5-LOX, sequence (P08170 whole entry): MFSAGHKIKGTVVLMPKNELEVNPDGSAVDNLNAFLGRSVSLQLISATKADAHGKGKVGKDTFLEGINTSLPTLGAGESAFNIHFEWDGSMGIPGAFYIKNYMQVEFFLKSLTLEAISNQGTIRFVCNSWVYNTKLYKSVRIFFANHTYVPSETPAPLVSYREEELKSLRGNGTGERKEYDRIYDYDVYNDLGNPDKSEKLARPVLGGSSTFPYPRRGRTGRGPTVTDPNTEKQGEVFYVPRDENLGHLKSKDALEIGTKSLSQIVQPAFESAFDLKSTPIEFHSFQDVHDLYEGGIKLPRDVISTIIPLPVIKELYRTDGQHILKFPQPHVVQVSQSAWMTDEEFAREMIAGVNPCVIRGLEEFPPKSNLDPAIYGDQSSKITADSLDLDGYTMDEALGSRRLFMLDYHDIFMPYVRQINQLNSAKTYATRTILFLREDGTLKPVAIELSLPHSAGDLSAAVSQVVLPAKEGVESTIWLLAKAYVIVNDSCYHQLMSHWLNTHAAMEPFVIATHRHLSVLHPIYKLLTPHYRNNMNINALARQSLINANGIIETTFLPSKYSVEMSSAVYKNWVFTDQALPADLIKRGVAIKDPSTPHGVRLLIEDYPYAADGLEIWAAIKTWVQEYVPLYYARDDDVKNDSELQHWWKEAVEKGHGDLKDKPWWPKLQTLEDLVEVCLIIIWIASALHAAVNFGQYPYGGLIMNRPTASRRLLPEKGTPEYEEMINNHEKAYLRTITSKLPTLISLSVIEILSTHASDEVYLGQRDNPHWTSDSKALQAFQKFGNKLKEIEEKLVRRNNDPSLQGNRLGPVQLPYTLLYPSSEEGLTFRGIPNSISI

One may read the inhibition as the percentage by which the read-out fell short of the control. On to `CC(c1cc2ccccc2s1)N(O)C(N)=O` (centres unmarked) [Zileuton], for which the inhibition at 20 µg/mL is 26.1%, the inhibition at 40 µg/mL was found to be 47%, the inhibition at 60 µg/mL came out at 51.9% and the inhibition at 80 µg/mL was 64.2%. Further, the inhibition at 100 µg/mL was 70.4%.
